From publication PMC5681660, “Reduced hepatitis B and D viral entry using clinically applied drugs as novel inhibitors of the bile acid transporter NTCP” (Scientific Reports, 2017)
Structures can show the parent of a compound that is named as a salt. Where two headings read alike, the source gives them in different places.

Assays:
human NTCP [1] = target: T1, human NTCP (Homo sapiens, UniProt Q14973); assay: Screening taurocholate uptake assay (96-well, [14C]taurocholate, 10 µM drug)
T1 sequence (Q14973 1-349): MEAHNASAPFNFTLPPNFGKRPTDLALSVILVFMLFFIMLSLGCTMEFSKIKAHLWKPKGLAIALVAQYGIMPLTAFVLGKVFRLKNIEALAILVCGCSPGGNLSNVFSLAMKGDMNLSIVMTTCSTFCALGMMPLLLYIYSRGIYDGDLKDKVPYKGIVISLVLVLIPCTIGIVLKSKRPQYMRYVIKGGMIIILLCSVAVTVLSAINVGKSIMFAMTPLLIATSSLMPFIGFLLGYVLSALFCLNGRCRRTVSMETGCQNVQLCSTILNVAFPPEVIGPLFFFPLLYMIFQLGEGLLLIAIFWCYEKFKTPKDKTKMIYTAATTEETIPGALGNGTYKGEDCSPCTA

human NTCP [2] = target: T1, human NTCP; assay: Screening fluorescent competitive Myrcludex B-FITC binding assay (96-well, 10 µM drug)
[3] = Prestwick library screen, 10 µM drug, B-score of taurocholate uptake
[4] = combined ranking from functional and binding assay B-scores
[5] = Prestwick library screen, 10 µM drug, B-score of Myrcludex B-FITC binding
[6] = combined ranking from functional and binding screening assays
[7] = screen, 10 µM drug, taurocholate uptake
[8] = screen, 10 µM drug, Myrcludex B-FITC binding
[9] = Prestwick library screen, taurocholate uptake, 10 µM drug
[10] = ranking score beside the functional and binding assay B-scores of the screen
[11] = Prestwick library screen, Myrcludex B-FITC binding, 10 µM drug

Row | Compound | B-score functional assay (human NTCP [1]; [3]) | Ranking score (human NTCP [1]; [4]) | B-score binding assay (human NTCP [2]; [5]) | Ranking score (human NTCP [1]; [6]) | B-score functional assay (human NTCP [1]; [7]) | B-score binding assay (human NTCP [2]; [8]) | B-score functional assay (human NTCP [1]; [9]) | Ranking score (human NTCP [1]; [10]) | B-score binding assay (human NTCP [2]; [11]) | other results
1 | CCOC(=O)[C@H](CCc1ccccc1)N[C@@H](C)C(=O)N1[C@H](C(=O)O)C[C@@H]2CCC[C@@H]21 [Ramipril] | 0.852 | 1101.41 | 1.901 | – | – | – | – | – | – | –
2 | COC(=O)C1=C(C#N)NC(C)=C(C(=O)OC(C)C)C1c1cccc([N+](=O)[O-])c1 (stereo not drawn) [Nilvadipine] | – | – | – | 384.686 | -2.135 | 2.397 | – | – | – | –
3 | COc1ccc(C(=O)N2CCCC2=O)cc1 [Aniracetam] | – | – | – | 340.074 | -1.196 | -0.157 | – | – | – | –
4 | Eburnamonine (-) | – | – | – | 349.983 | -1.058 | -0.173 | – | – | – | –
5 | CC(C)(N)Cc1ccccc1.Cl [Phentermine hydrochloride] | 2.461 | 1114.52 | 0.892 | – | – | – | – | – | – | –
6 | COc1ccccc1N1CCN(CCCCNC(=O)c2ccc3ccccc3c2)CC1.Cl.Cl [DO 897/99] | – | – | – | 447.929 | -0.485 | -0.125 | – | – | – | –
7 | CN(C)C(=N)N=C(N)N [Metformin hydrochloride] | – | – | – | – | – | – | -0.092 | 761.884 | 1.144 | –
8 | CNC1(C)C2CCC(C2)C1(C)C (stereo not drawn) [Mecamylamine hydrochloride] | – | – | – | 340.338 | -0.591 | -0.663 | – | – | – | –
9 | C=CCSCC1Nc2cc(Cl)c(S(N)(=O)=O)cc2S(=O)(=O)N1 (stereo not drawn) [Althiazide] | 0.092 | 866.45 | 0.861 | – | – | – | – | – | – | –
10 | CCOC(=O)C1=C(C)NC(C)=C(C(=O)OCC)C1c1ccccc1/C=C/C(=O)OC(C)(C)C [Lacidipine] | 0.194 | 957.497 | 1.528 | – | – | – | – | – | – | –
11 | CCOC(=O)C1=C(COCCN)NC(C)=C(C(=O)OC)C1c1ccccc1Cl (stereo not drawn) [Amlodipine] | 0.5 | 1057.69 | 2.427 | – | – | – | – | – | – | –
12 | COc1ccc2c3c1O[C@H]1C[C@@H](O)C=C[C@@]31CCN(C)C2 [Galanthamine hydrobromide] | – | – | – | – | – | – | 0.072 | 808.114 | 0.486 | –
13 | CC(C)(C)NCC(O)COc1cccc2c1CC(O)C(O)C2 (stereo not drawn) [Nadolol] | 0.292 | 986.853 | 1.627 | – | – | – | – | – | – | –
14 | NCCCNCCSP(=O)(O)O [Amifostine] | – | – | – | – | – | – | 0.006 | 764.099 | 0.481 | –
15 | CC[N+](C)(C)c1cccc(O)c1 [Edrophonium chloride] | – | – | – | 420.888 | -1.061 | 0.083 | – | – | – | –
16 | CN(C)CCN(Cc1ccc(Cl)cc1)c1ccccn1.Cl [Chloropyramine hydrochloride] | – | – | – | 387.298 | -2.146 | 2.853 | – | – | – | –
17 | CCn1cc(C(=O)O)c(=O)c2cnc(N3CCNCC3)nc21 [Pipemidic acid] | – | – | – | – | – | – | -0.002 | 736.261 | 0.325 | –
18 | NC(=O)N1c2ccccc2C=Cc2ccccc21 [Carbamazepine] | – | – | – | – | – | – | -0.062 | 671.795 | 0.183 | –
19 | O=C(CCCCC(=O)Nc1c(I)cc(I)c(C(=O)O)c1I)Nc1c(I)cc(I)c(C(=O)O)c1I [Iodipamide] | – | – | – | – | – | – | 2.519 | 831.882 | -0.069 | –

Row | Compound | B-score functional assay (human NTCP [1]; [3]) | Ranking score (human NTCP [1]; [4]) | B-score binding assay (human NTCP [2]; [5]) | Ranking score (human NTCP [1]; [6]) | B-score functional assay (human NTCP [1]; [7]) | B-score binding assay (human NTCP [2]; [8]) | B-score functional assay (human NTCP [1]; [9]) | Ranking score (human NTCP [1]; [10]) | B-score binding assay (human NTCP [2]; [11]) | other results
20 | c1ccc(CN(CC2=NCCN2)c2ccccc2)cc1 [Antazoline hydrochloride] | 1.194 | 927.719 | 0.166 | – | – | – | – | – | – | –
21 | Nc1ccc(S(=O)(=O)[N-]c2cnc3ccccc3n2)cc1.[Na+] [Sulfaquinoxaline sodium salt] | 0.659 | 893.639 | 0.273 | – | – | – | – | – | – | –
22 | CCC1=C[C@@H]2CN3CCc4c([nH]c5ccccc45)[C@@](C(=O)OC)(C2)[C@@H]13 [Catharanthine] | – | – | – | 448.328 | -0.613 | -0.047 | – | – | – | –
23 | C[C@H]1O[C@H](O[C@H]2[C@H](O)[C@@H](O)[C@@H](O[C@H]3[C@H](O)[C@@H](O)C(O)O[C@@H]3CO)O[C@@H]2CO)[C@H](O)[C@@H](O)[C@@H]1N[C@H]1C=C(CO)[C@@H](O)[C@H](O)[C@H]1O (stereo partly drawn) [Acarbose] | – | – | – | – | – | – | 1.632 | 792.136 | -0.109 | –
24 | CN1C(=O)CC(c2ccccc2)C1=O (stereo not drawn) [Phensuximide] | – | – | – | 401.836 | 0.043 | -1.044 | – | – | – | –
25 | CC(=O)CC(c1ccc([N+](=O)[O-])cc1)c1c(O)c2ccccc2oc1=O (stereo not drawn) [Acenocoumarol] | 0.873 | 950.096 | 0.383 | – | – | – | – | – | – | –
26 | CC1=NS(=O)(=O)c2cc(Cl)ccc2N1 [Diazoxide] | – | – | – | 331.971 | -1.121 | -0.26 | – | – | – | –
27 | O=C1CCC(N2C(=O)c3ccccc3C2=O)C(=O)N1 (stereo not drawn) [Thalidomide] | 0.111 | 964.883 | 2.398 | – | – | – | – | – | – | –
28 | COc1cc(C(=O)NC2CCCNC2)cc(OC)c1OC (stereo not drawn) [Troxipide] | 0.286 | 1019.78 | 2.726 | – | – | – | – | – | – | –
29 | CCCc1cc(C(N)=S)ccn1 [Prothionamide] | – | – | – | – | – | – | -0.17 | 776.121 | 2.241 | –
30 | OCCOCCN1CCN(C(c2ccccc2)c2ccc(Cl)cc2)CC1 (stereo not drawn) [Hydroxyzine dihydrochloride] | – | – | – | 394.018 | 1.371 | -1.7 | – | – | – | –
31 | CCCC(=O)Nc1ccc(OCC(O)CNC(C)C)c(C(C)=O)c1 (stereo not drawn) [Acebutolol hydrochloride] | 1.681 | 904.34 | 0.049 | – | – | – | – | – | – | –
32 | O=C(O)COCCN1CCN(C(c2ccccc2)c2ccc(Cl)cc2)CC1 (stereo not drawn) [Cetirizine dihydrochloride] | – | – | – | – | – | – | 0.907 | 820.204 | 0.001 | –
33 | CCN(CC)CCNC(=O)c1cc(S(C)(=O)=O)ccc1OC [Tiapride hydrochloride] | 1.625 | 1010.78 | 0.4 | – | – | – | – | – | – | –
34 | COc1ccc(Cc2nccc3cc(OC)c(OC)cc23)cc1OC [Papaverine hydrochloride] | – | – | – | – | – | – | -0.09 | 728.955 | 0.722 | –
35 | COc1cc2nc(N3CCN(C(=O)C4COc5ccccc5O4)CC3)nc(N)c2cc1OC (stereo not drawn) [Doxazosin mesylate] | – | – | – | – | – | – | – | – | – | B-score functional assay (human NTCP [1]): -0.292; Ranking score (human NTCP [1]): 599.787; B-score binding assay (human NTCP [2]): 0.211
36 | Cc1nc2ccc(CN(C)c3ccc(C(=O)N[C@@H](CCC(=O)O)C(=O)O)s3)cc2c(=O)[nH]1 [Raltitrexed] | – | – | – | 413.367 | -1.033 | 0.04 | – | – | – | –
37 | CO[C@H]1/C=C/O[C@@]2(C)Oc3c(C)c(O)c4c(c3C2=O)C2=NC3(CCN(CC(C)C)CC3)NC2=C(NC(=O)/C(C)=C\C=C\[C@H](C)[C@H](O)[C@@H](C)[C@@H](O)[C@@H](C)[C@H](OC(C)=O)[C@@H]1C)C4=O [Rifabutin] | – | – | – | – | – | – | 1.309 | 731.029 | -0.23 | –
38 | CCn1cc(C(=O)O)c(=O)c2cc(F)c(N3CCNC(C)C3)c(F)c21 (stereo not drawn) [Lomefloxacin hydrochloride] | – | – | – | – | – | – | 0.226 | 831.882 | 0.323 | –
